For 7 compounds, Kd, IC50 and DC50 results are on record in patent publication US20250115598A1 (Anaxis Pharma Pty Ltd, priority 2021, published 2025).

One experiment deals with human MLKL (full length) (Homo sapiens (Human), UniProt Q8NB16). Briefly: KINOMEscan binding assay, human MLKL (full length). Conditions: hMLKL, Table 25; read-out: MLKL (KD). The essentials:
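KINOMEscan competition binding using kinase-tagged T7 phage or HEK-293-produced DNA-tagged protein captured on ligand beads, with eluted protein quantified by qPCR. Compounds were run as an 11-point 3-fold series, top 30,000 nM, in 1% DMSO. Kd was fitted with the Hill equation, slope fixed at −1.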

The test system of experiment [1] is Immortalised Mouse Dermal Fibroblasts (MDFs). Briefly: Cellular assay: inhibition of TSI induced necroptosis, CellTitre-Glo viability. Conditions: Mus musculus, Fibroblast; MDF, 3 hours TSI cocktail, Table 27; read-out: Inhibition of TSI-induced necroptosis (IC50 cell-based assay) in MDF. The method, then:
Cellular Assay: Screening Compounds for Inhibition of TSI Induced Necroptosis in, 384 Well Plate Format.
• Cell Line ID: Immortalised Mouse Dermal Fibroblasts (MDFs). • Cell Concentration (cells/well): Final cell density is 2200 cells per well. • Cell growth medium: DMEM medium+7.4% Fetal Bovine Serum (FBS). Cells are cultured in Corning 150 cm^2 tissue culture flasks with vented caps at 37° C./10% CO2. • Incubation: Plates were incubated for 30 minutes following addition of compounds and then 3 hours incubation with death stimuli (TSI cocktail) at 37° C./10% CO2 in a humidified incubator. • Compound concentration: 36 μM starting concentration, 1:3 dilution, 10 point • DMSO final concentration (% v/v): 0.3%. Compounds in TSI Cocktail (T: TNF; S: Smac Mimetic; I: IDN-6556) and their Final Concentrations: • rhTNF (100 ng/ml) • Compound a (500 nM)—Smac Mimetic, Tetralogic and SYNthesis Med Chem • IDN-6556 (10 μM)—Selleckchem (S7775)
The cellular assay was carried out according to the following steps: • 1. Each well was prepared by sequential addition of: • a. 40 μL of cell suspension (5.5×10^4 cells/mL) was added to each well to provide a final cell concentration of 2,200 cells per well. • b. After 24 hours, DMSO (control; columns 1-2 and 23-24) or compound in DMSO—addition was performed using acoustic transfer of nL volumes of stock compound to give final test concentrations of 36, 12, 4, 1.3, 0.44, 0.148, 0.049, 0.016, 0.005 and 0.002 μM. All wells were backfilled with DMSO to a final total volume in the well of 100 nL. • c. Following compound/DMSO addition in step (b), Plates were incubated for 30 minutes at 37° C./10% CO2 in a humidified incubator and then 10 μL of 5×TSI cocktail (except to positive controls; columns 2 and 24) was added to each well. • 2. After 3 hours, plate was removed from the 37° C. incubator and equilibrated to room temperature for 15 minutes. • 3. 15 μL of room temperatured CellTitre-Glo2™ (Promega™) was added to each well. • 4. Shook plates for 2 minutes (˜600 rpm) and incubated at room temperature for 15 minutes to allow signal to stabilise. • 5. Read luminescence readout on a plate reader.
Percent viability was calculated for each compound according to equation (2):
[formula] • Wherein RawData is the readout of any cell containing a compound of the invention.
TA is the total activity provided by the luminescence readout from DMSO only wells (columns 2 and 24)=100% viability.
NSA is the non-specific activity provided by DMSO+TSI wells (columns 1 and 23)=0% viability • Curve fitting: 10-point titration curves are fitted with the 4-parameter logistic nonlinear regression model and the IC50 reported is the inflection point of the curve • Analysis: Data was loaded into Dotmatics™ and visualised using the Tibco@ • Spotfire™ software. 10 point titration curves were fitted with the 4 parameter logistic nonlinear regression model and the IC50 reported reflect the inflection point of the curve for curve fitting.
Assay involving the TSI cocktail (T: TNF; S: Smac mimetic; I: IDN-6556): TSI treatment ensures that cells specifically undergo necroptotic cell death. TNF activates the TNF receptor, Smac mimetic directs the signal away from proinflammatory signaling and toward the RIPK1/RIPK3-mediated cell death pathways, and IDN-6556 (Caspase inhibitor) ensures that the apoptotic response is blocked leaving only the programmed necrosis response. The compounds' activity (solution in DMSO) tested in this TSI-induced assay was evaluated by determining the number of viable cells in culture by measuring the amount of ATP present as measured by CelltiterGlo.

The target in a further experiment is endogenous MLKL in MDF (Mus musculus (Mouse), UniProt Q9D2Y4). Briefly: Degradation assay: endogenous MLKL in MDF (western blot). As to conditions: MDF cells, 24 h incubation with compound, MLKL adjusted for loading with GAPDH, normalized to DMSO only control, read-out: Degradation of endogenous MLKL in MDF (DC50 cell-based assay). The method, then:
Degradation Assay: Screening Compounds Procedure to Evaluate the Activity of Compounds in Degrading Endogenous MLKL in Human and Mouse Cell
The mouse dermal fibroblast (MDF) cell line was seeded the day before the experiment in a 24-well plate at a cell density of […] per well in a volume of 0.5 mL per well and left to attach overnight. The human monocyte cell line (U937) was seeded on the day of the experiment in a 24-well plate at a cell density of […] per well in a volume of 0.5 mL per well.
The compound was diluted in DMSO with a starting concentration of 10 mM and titrated stepwise with a dilution of 1:5. 0.5 μL of the compound dilution was added to the appropriate well to achieve a final concentration of 10; 2; 0.4; 0.08 and 0.016 μM. A DMSO only well was included as control.
The cells were incubated for 24 h in the presence of the compound at 37° C. and 10% CO2.
After the 24 h incubation period, the medium was removed and cells washed with 0.5 mL PBS. The cells were then lysed directly in 60 μL of 1×SDS gel loading buffer.
The cell lysate was heat-denatured at […] for 10 min. 10 μL of lysate per well were run on 18-well 4-15% Criterion TGX stain free gels (BIO-RAD). The proteins were then transferred onto nitrocellulose membrane with a wet transfer protocol in the Criterion Blotter (BIO-RAD).
Membranes were blocked with 5% skim milk in TBST. Primary antibody against MLKL (clone 3H1, MABC604 Merck) was used at 1:2000 dilution in TBST with 1% BSA and left shaking over night at 4° C. After washes with TBST, the membranes were incubated with goat anti-rat IgG HRP-conjugated antibody (Southern Biotech) in 1% skim milk TBST at 1:10000 dilution for 1 h at room temperature. After TBST washes the bands were imaged on the ChemiDoc MP Imaging System (BIO-RAD) with Immobilion Western Chemiluminescent HRP Substrate Forte (Millipore). The loading control GAPDH was probed for with rabbit anti-GAPDH (CST 14C10) at 1:2000 dilution in 1% BSA TBST over night at 4° C. TBST washes were followed by incubation with goat anti-rabbit IgG HRP-conjugated antibody (Southern Biotech) in 1% skim milk TBST at 1:10000 dilution for 1 h at room temperature followed by TBST washes. The signal was detected as described above.
The band intensity was measured in the ImageLab Software (BIO-RAD) and the MLKL values adjusted for loading with GAPDH. The percentage of degradation was calculated by normalizing the compound treated values to the DMSO only control.

pIC50, pKd: −log10 of the molar value.

Sequence of endogenous MLKL in MDF (Q9D2Y4 whole entry): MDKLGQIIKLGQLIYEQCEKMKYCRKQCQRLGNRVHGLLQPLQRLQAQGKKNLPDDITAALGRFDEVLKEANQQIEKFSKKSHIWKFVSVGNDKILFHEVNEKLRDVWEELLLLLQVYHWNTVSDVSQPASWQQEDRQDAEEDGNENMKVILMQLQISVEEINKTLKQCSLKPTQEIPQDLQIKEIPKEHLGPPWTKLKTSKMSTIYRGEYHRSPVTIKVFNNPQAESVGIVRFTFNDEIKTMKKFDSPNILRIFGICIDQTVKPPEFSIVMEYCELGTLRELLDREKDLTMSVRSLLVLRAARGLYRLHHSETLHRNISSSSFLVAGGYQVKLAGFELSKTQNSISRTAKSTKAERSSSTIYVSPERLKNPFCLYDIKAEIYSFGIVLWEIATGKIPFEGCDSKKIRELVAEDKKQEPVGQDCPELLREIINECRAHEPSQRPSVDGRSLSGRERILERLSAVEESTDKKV
Sequence of human MLKL (full length) (Q8NB16 whole entry): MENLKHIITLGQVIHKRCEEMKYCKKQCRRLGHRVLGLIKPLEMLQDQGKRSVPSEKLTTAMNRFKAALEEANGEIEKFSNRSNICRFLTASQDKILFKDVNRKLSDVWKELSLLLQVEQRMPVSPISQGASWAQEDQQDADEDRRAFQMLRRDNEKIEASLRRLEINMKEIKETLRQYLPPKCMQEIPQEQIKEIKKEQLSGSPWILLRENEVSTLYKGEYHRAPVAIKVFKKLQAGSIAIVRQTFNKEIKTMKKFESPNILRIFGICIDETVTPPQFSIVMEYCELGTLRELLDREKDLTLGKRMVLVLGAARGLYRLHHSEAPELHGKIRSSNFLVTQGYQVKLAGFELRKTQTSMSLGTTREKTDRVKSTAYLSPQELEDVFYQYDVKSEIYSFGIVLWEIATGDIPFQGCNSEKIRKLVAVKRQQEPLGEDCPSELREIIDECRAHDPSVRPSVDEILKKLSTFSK

Broadly, the pKd is the Kd on a negative log10 scale, so that one unit is a factor of ten. Usually pIC50 stands for −log10 of the IC50, conventionally taken in molar units. The DC50 is the concentration giving 50% degradation. Regarding `C[C@H](Oc1cc(-c2nn(C)c3c(-c4cnn(C5CCN(CCN6CCCC(COc7cccc8c7C(=O)N(C7CCC(=O)NC7=O)C8=O)C6)CC5)c4)cnc(N)c23)ccc1NS(=O)(=O)C(F)F)c1ccc(F)cc1` (stereo partly drawn) [Compound 1132, N-(4-{4-amino-7-[1-(1-{2-[3-({[2-(2,6-dioxopiperidin-3-yl)-1,3-dioxo-2,3-dihydro-1H-isoindol-4-yl]oxy}methyl)piperidin-1-yl]ethyl}piperidin-4-yl)-1H-pyrazol-4-yl]-1-methyl-1H-pyrazolo[4,3-c]pyridin-3-yl}-2-[(1S)-1-(4-fluorophenyl)ethoxy]phenyl)-1,1-difluoromethanesulfonamide], the pKd at human MLKL (full length) is 6.00 to 8.00. The pIC50 in experiment [1] is above 6.00. Besides, the DC50 on endogenous MLKL in MDF is below 1000 nM.
In the same order, the values of `CCS(=O)(=O)Nc1ccc(-c2nn(C)c3c(-c4cnn(C5CCN(C(=O)[C@H]6C[C@H](Nc7cccc8c7C(=O)N(C7CCC(=O)NC7=O)C8=O)C6)CC5)c4)cnc(N)c23)cc1F` (stereo partly drawn) [Compound 1102, N-{4-[4-amino-1-methyl-7-(1-{1-[(trans)-3-{[2-(2,6-dioxopiperidin-3-yl)-1,3-dioxo-2,3-dihydro-1H-isoindol-4-yl]amino}cyclobutanecarbonyl]piperidin-4-yl}-1H-pyrazol-4-yl)-1H-pyrazolo[4,3-c]pyridin-3-yl]-2-fluorophenyl}ethane-1-sulfonamide] are above 8.00, above 6.00 and below 1000 nM.
Consider `C[C@H](Oc1cc(-c2nn(C)c3c(-c4cnn(C5CCN(C(=O)[C@]6(F)C[C@H](Nc7cccc8c7C(=O)N(C7CCC(=O)NC7=O)C8=O)C6)CC5)c4)cnc(N)c23)ccc1NS(=O)(=O)C(F)F)c1ccc(F)cc1` (stereo partly drawn) [Compound 1110, N-{4-[4-amino-1-methyl-7-(1-{1-[(trans)-3-{[2-(2,6-dioxopiperidin-3-yl)-1,3-dioxo-2,3-dihydro-1H-isoindol-4-yl]amino}-1-fluoro-cyclobutanecarbonyl]piperidin-4-yl}-1H-pyrazol-4-yl)-1H-pyrazolo[4,3-c]pyridin-3-yl]-2-[(1S)-1-(4-fluorophenyl)ethoxy]phenyl}-1,1-difluoromethanesulfonamide], for which the pKd on human MLKL (full length) is above 8.00. Further, the pIC50 in experiment [1] was above 6.00. The DC50 on endogenous MLKL in MDF is below 1000 nM.
Taken in the same sequence, the figures for `C[C@H](Oc1cc(-c2nn(C)c3c(-c4cnn(C5CCN(C(=O)N6CCN(c7cccc8c7C(=O)N(C7CCC(=O)NC7=O)C8=O)CC6)CC5)c4)cnc(N)c23)ccc1NS(=O)(=O)C(F)F)c1ccc(F)cc1` (stereo partly drawn) [Compound 1103, N-(4-{4-amino-7-[1-(1-{4-[2-(2,6-dioxopiperidin-3-yl)-1,3-dioxo-2,3-dihydro-1H-isoindol-4-yl]piperazine-1-carbonyl}piperidin-4-yl)-1H-pyrazol-4-yl]-1-methyl-1H-pyrazolo[4,3-c]pyridin-3-yl}-2-[(1S)-1-(4-fluorophenyl)ethoxy]phenyl)-1,1-difluoromethanesulfonamide] were above 8.00, above 6.00 and below 1000 nM.
Take `C[C@H](Oc1cc(-c2nn(C)c3c(-c4cnn(C5CCN(C(=O)CCC6CCN(c7cc8c(cc7F)C(=O)N(C7CCC(=O)NC7=O)C8=O)CC6)CC5)c4)cnc(N)c23)ccc1NS(=O)(=O)C(F)F)c1ccc(F)cc1` (stereo partly drawn) [Compound 1087, N-[4-(4-amino-7-{1-[1-(3-{1-[2-(2,6-dioxopiperidin-3-yl)-6-fluoro-1,3-dioxo-2,3-dihydro-1H-isoindol-5-yl]piperidin-4-yl}propanoyl)piperidin-4-yl]-1H-pyrazol-4-yl}-1-methyl-1H-pyrazolo[4,3-c]pyridin-3-yl)-2-[(1S)-1-(4-fluorophenyl)ethoxy]phenyl]-1,1-difluoromethanesulfonamide]: at human MLKL (full length), the pKd is 6.00 to 8.00. Moreover, in experiment [1], the pIC50 is above 6.00. Moreover, at endogenous MLKL in MDF, the DC50 was below 1000 nM.
With `C[C@H](Oc1cc(-c2nn(C)c3c(-c4cnn(C5CCN(C(=O)Cc6cccc7c6C(=O)N(C6CCC(=O)NC6=O)C7=O)CC5)c4)cnc(N)c23)ccc1NS(=O)(=O)C(F)F)c1ccc(F)cc1` (stereo partly drawn) [Compound 1137, N-(4-{4-amino-7-[1-(1-{2-[2-(2,6-dioxopiperidin-3-yl)-1,3-dioxo-2,3-dihydro-1H-isoindol-4-yl]acetyl}piperidin-4-yl)-1H-pyrazol-4-yl]-1-methyl-1H-pyrazolo[4,3-c]pyridin-3-yl}-2-[(1S)-1-(fluorophenyl)ethoxy]phenyl)-1,1-difluoromethanesulfonamide], in experiment [1], the pIC50 was 5.00 to 6.00. Moreover, on endogenous MLKL in MDF, the DC50 was below 1000 nM.
In the same order, the values of `C[C@H](Oc1cc(-c2nn(C)c3c(-c4cnn(C5CCN(CCn6cc(CCNc7cccc8c7C(=O)N(C7CCC(=O)NC7=O)C8=O)nn6)CC5)c4)cnc(N)c23)ccc1NS(=O)(=O)C(F)F)c1ccc(F)cc1` (stereo partly shown) [Compound 1128, N-(4-{4-amino-7-[1-(1-{2-[4-(2-{[2-(2,6-dioxopiperidin-3-yl)-1,3-dioxo-2,3-dihydro-1H-isoindol-4-yl]amino}ethyl)-1H-1,2,3-triazol-1-yl]ethyl}piperidin-4-yl)-1H-pyrazol-4-yl]-1-methyl-1H-pyrazolo[4,3-c]pyridin-3-yl}-2-[(1 S)-1-(4-fluorophenyl)ethoxy]phenyl)-1,1-difluoromethanesulfonamide] are above 6.00 and below 1000 nM.
